According to US12503432B2, “Ionizable lipids for nucleic acid delivery” (Global Life Sciences Solutions Canada ULC, priority 2019, dated 2025):

Legend:
C57BL/6 mice = experiment: In vivo delivery of EPO-encoded mRNA LNP via intravenous route, serum EPO ELISA; set-up: key to EPO Protein expression: IV in mice: *: The number of asterix symbols indicates protein expression levels interpreted by the inventors from quantitative data; **: The number of asterix symbols indicates protein expression levels interpreted by the inventors from quantitative data; ***: The number of asterix symbols indicates protein expression levels interpreted by the inventors from quantitative data; ****: The number of asterix symbols indicates protein expression levels interpreted by the inventors from quantitative data; *****: The number of asterix symbols indicates protein expression levels interpreted by the inventors from quantitative data; *******: The number of asterix symbols indicates protein expression levels interpreted by the inventors from quantitative data; conditions: qualitative grade interpreted from quantitative data
Source text: Lipid Nanoparticles with the composition IL/DSPC/Cholesterol/PEG-DMG2000 (LM 02—see Table 3) were used to encapsulate recombinant human erythropoietin (EPO) encoded mRNA with 5-moU modifications [TriLink CleanCapo 5-moU EPO mRNA L7201]. To create the LNP, lipid mix in ethanol was microfluidically mixed with a low PH buffered solution of 5-moU EPO mRNA mixer at an N/P ratio of 6 using a NanoAssemblr® Ignite™ microfluidic mixer. The microfluidically mixed particles were downstream processed using Amicon® ultra 15 10 kDa MWCO units (EMD Millipore) filtration technique. The RNA loaded lipid particles were then characterized for size, PDI and Encapsulation Efficiency (EE). Size and PDI were measured using dynamic light scattering techniques described above, and nucleic acid encapsulation efficiency was calculated using a Quant-iT RiboGreen RNA assay as described supra, modified to use hEPO mNA as the standard instead if the standard RNA in the kit. The hydrodynamic diameter of these mRNA-LNPs was ˜70 nm with a PDI in the range of 0.02 to 0.1 and an encapsulation efficiency of ˜97.8%.
Animals were handled according to the Institutional Animal Care and Use Committee ethics protocols. For experiments, 6-8 week old C57BL/6 mice were purchased from Envigo (South Kent, WA, USA). For in vivo activity, female C57BL/6 mice were treated intravenously with EPO mRNA LNPs at specified dosages of 0.5-3 mg/Kg. Samples of 50-75 μL of blood were collected 6 h post administration via saphenous vein, and at regular time intervals of 24 h or 48 h.
After harvest, blood was immediately prepared to produce serum samples using standard techniques, and stored at −80 degrees C. Briefly, after collection, the blood was allowed to clot at room temperature for 15-30 minutes. The clot was removed by centrifuging the tubes at 1000-2000×g for 10 min at 4 degrees Celsius. The clear golden-yellow color supernatant was carefully removed and transferred to sterile screw-capped clear polypropylene tubes on ice. The serum was then stored, if necessary, at −80° C. until analysis.
Samples were thawed, then analyzed at appropriate dilutions for EPO protein expression and for cytokine/chemokine levels. The total serum EPO levels were evaluated using Quantikine® IVD EPO ELISA kit (Bio-Techne, Minneapolis, MN, USA).
Following i.v administration of a 0.5 mg/Kg dose of recombinant human EPO-encoded mRNA LNPs containing ionizable lipid MC3, PNI 121 or PNI 123 using the LM02 composition at N/P 6, EPO expression levels at 6 h (upper, FIG. 6) and at 24 h (lower, FIG. 6) in C56BL/6 mice were examined; hEPO protein was measured using Quantikine® IVD® ELISA Human Erythropoietin Immunoassay protocol.

[1] = LNP characterization: size and PDI by dynamic light scattering, mRNA encapsulation efficiency by RiboGreen assay; assay type: physicochemical
Protocol: Particle sizes and “polydispersity index” (PDI) of the lipid particle were measured by dynamic light scattering (DLS). PDI indicates the width of the particle distribution. This is a parameter calculated from a cumulative analysis of the (DLS)-measured intensity autocorrelation function assuming a single particle size mode and a single exponential fit to the autocorrelation function. […] The particles produced by mechanical micromixers such as the NanoAssemblr® Spark™ and NanoAssemblr® Benchtop (Precision NanoSystems Inc.) are substantially homogeneous in size assuming all other variables are neutral. A lower PDI indicates a more homogenous population of lipid particles. The Spark™ instrument is used in a screening setting to identify the lead compositions. Once the composition is selected, the lipid particle can be fine-tuned using the NanoAssemblr® Benchtop. Once the process parameters Flow Rate Ratio and Total Flow Rate is identified for the specific nanoparticle composition, the nanoparticle technology can be scaled up using the same process parameter values.
Lipid particles were also manufactured by a larger microfluidic mixer instrument, the NanoAssemblr® Ignite™ for testing. Briefly, 350 μL of mRNA was diluted using 100 mM sodium acetate buffer to the required concentration of 0.2 to 0.3 mg/mL. Lipid particle samples were then prepared by running both fluids, namely, nucleic acids in aqueous solvent and Lipid Mix in ethanol at a flow ratio of 3:1 and at a total flow rate of 12 ml/min in the microfluidic mixer. Following mixing in the microfluidic device, the post cartridge lipid nucleic acid particle sample was diluted into RNAse free tubes containing three to 40 volumes of phosphate buffered saline (PBS), pH 7.4. Ethanol was finally removed through dialysis in PBS, pH 7, or using Amicon™ centrifugal filters (Millipore, USA) at 3000 RPM, or using TFF systems. Once the required concentration was achieved, the lipid nucleic acid particles were filter sterilized using 0.2 μm filters in aseptic conditions. Final encapsulation efficiency was measured by the Ribogreen™ assay. Quant-iT™ RiboGreen® RNA Reagent and Kit (Invitrogen) following manufacturer directions.
Messenger RNA or plasmid nucleic acid therapeutic (NAT) as described below, was diluted using sodium acetate buffer to the required concentration. Lipid nucleic acid particle (LNAP) samples were then prepared by running both fluids using the NanoAssemblr® Spark instrument. Briefly, […] of nucleic acids in 100 mM sodium acetate buffer in a total volume of 32 μL was mixed with 16 μL of 37.5 mM lipid mix solution as required by the N/P ratios (4, 6, or 10 in illustrated examples). The microfluidically mixed lipid nucleic acid particles (LNAP) made in the instrument were immediately diluted down with 48 μL Ca++ and Mg++ free 1× PBS at pH 7.4 in the aqueous output well. These LNAP were immediately collected into microcentrifuge tubes containing 96 μL of the same buffer at pH 7.4. Encapsulation efficiency was measured by a modified Ribogreen™ assay (Quanti-iT RiboGreen™ RNA assay kit, Fisher). This information was used to establish the desired dosage.
After the lipid particles were made as described in Example 17, particle size (hydrodynamic diameter of the particles) was determined by Dynamic Light Scattering (DLS) using a ZetaSizer™ Nano ZS™ (Malvern Instruments, UK). He/Ne laser of 633 nm wavelength was used as the light source. Data were measured from the scattered intensity data conducted in backscattering detection mode (measurement angle=173). Measurements were an average of 10 runs of two cycles each per sample. Z-Average size was reported as the particle size, and is defined as the harmonic intensity averaged particle diameter. These LNP characteristics, as well as the results of the mRNA encapsulation efficiency for various Lipid Mixes are also described in the application are shown in Tables 4, 5 and 6. […]

[2] = 5-moU EPO encoded LNPs, IL:DSPC:cholesterol:DMG-PEG (50:10:38.5:1.5), N/P 6
[3] = Table 4 LNPs, payload and lipid mix not stated
[4] = OVA encoded LNPs, payload WT OVA, LM02, N/P 8

Diameter (Z. ave, nm) [1, 2] [nm] | Encapsulation Efficiency (%) [1, 2] [%] | Polydispersity Index (PDI) [1, 2] | Diameter (Z. ave, nm) [1, 3] [nm] | Encapsulation Efficiency (%) [1, 3] [%] | Polydispersity Index (PDI) [1, 3] | Diameter (Z. ave, nm) [1, 4] [nm] | Encapsulation Efficiency (%) [1, 4] [%] | Polydispersity Index (PDI) [1, 4] | SMILES | EPO Protein expression: IV in mice (C57BL/6 mice)
73.2 | 98.9 | 0.03 | 91.2 | 98.7 | 0.07 | – | – | – | CC/C=C\CC1C(CC(=O)OCC(COCCCCCCCC/C=C\C/C=C\CCCCC)OCCCCCCCC/C=C\C/C=C\CCCCC)CCC1OC(=O)CCCN1CCCC1 (stereo not shown) [PNI 558] | ***
97.7 | 93.4 | 0.08 | 74.10 | 93.0 | 0.156 | 93.2 | 98.4 | 0.09 | CC/C=C\CC1C(CC(=O)OCC(COCCCCCCCC/C=C\C/C=C\CCCCC)OCCCCCCCC/C=C\C/C=C\CCCCC)CCC1OC(=O)CCCN(C)C (stereo not shown) [PNI 101] | **
62.5 | 97.4 | 0.06 | 71.2 | 96.4 | 0.05 | – | – | – | CC/C=C\CC1C(CC(=O)OC(CCCCCCCCC2CC2CCCCCCCC)CCCCCCCCC2CC2CCCCCCCC)CCC1OC(=O)CCN(C)C (stereo not shown) [PNI 549] | ***
63.1 | 98.7 | 0.06 | 60.5 | 98.4 | 0.06 | 76.7 | 97.7 | 0.05 | CC/C=C\CC1C(CC(=O)OC(CCCCCCCCC2CC2CCCCCCCC)CCCCCCCCC2CC2CCCCCCCC)CCC1OC(=O)C1(C)CCN(C)CC1 (stereo not shown) [PNI 560] | ****
